The target of this experiment is TRPC5 channel (Homo sapiens (Human), UniProt Q9UL62). Kind of experiment: High throughput screening assay: intracellular Ca2+ rise, Fluo4 cell-based fluorescence. As to conditions: HEK293/TREx cells inducibly expressing TRPC5, high-Ca2+ Ringer, 14 mM Ca2+ final, triplicate, 0.027-20 μM. The text has this: The assay depended on detection of the rise in intracellular Ca2+ concentration ([Ca2+]i) following channel activation in cells inducibly expressing the TRPC5 channel. Ca2+ rise was quantified with the use of fluorescent Ca2+ indicators that were loaded into cells and thereafter indicated the [Ca2+]i Ca2+ influx followed activation of the TRPC5 channel. Compounds inhibiting the [Ca2+]i rise were considered hits for further investigation.
The commercially available HEK293/TREx line (Invitrogen) was stably transfected with a TRPC5 construct and screened by conventional calcium imaging to find clones with TRPC5 expression following stimulation with 1 μg/ml tetracycline. These cells were maintained in the growth medium recommended by the manufacturer supplemented with 100 μg/ml hygromycin to promote retention of the TRPC5 construct. After growing to near confluency, cells were plated at a density of ˜35,000 cells/well in 384 well CellBind plates (Corning) in the presence of 1 μg/ml tetracycline, and allowed to grow for 20-30 hrs. A nearly confluent monolayer resulted. Cells were then loaded with Ca2+ dye: Fura-2/AM or Fluo4/AM was added to the wells to a final concentration of 4 μM or 0.5 μM, respectively, and incubated for 80 min or 60 min, respectively, at room temperature. Supernatant was then removed from the cells by inverting plates with a sharp flick, and 25 μl Hank's Balanced Salt Solution (HBSS; 0.185 g/l D-glucose, 0.9767 g/l MgS04 (anhydrous), 0.4 g/l KCl, 0.06 g/l KH2PO4 (anhydrous), 0.35 g/l NaHCO3, 8.0 g/l NaCl, and 0.04788 g/l Na2HPO4 (anhydrous); pH 7.4) was then added to each well. Following ˜0.5 hour for recovery from loading, cells were assayed using the Hamamatsu FDSS 6000 system, which permitted illumination alternately at 340 nm and 380 nm for Fura-2 experiments, or at 485 nm for Fluo4 experiments. Frames were acquired at a rate of 0.2 Hz. During the assay, the plates were continuously vortexed, with pipette mixing of wells following addition of each reagent. For the screening assay, 26 μl of a diluted compound stock (at 50 μM) was added to each well for 2 minutes following the collection of a short (4 frame) baseline. 13 μl 62 mM high-Ca2+Ringer solution (4.17 ml of normal ringer (with 2 mM Ca2+) plus 5.83 ml of isotonic calcium ringer (105 mM Ca2+; in this ringer all sodium has been replaced with calcium)) was then added to each well, achieving a final concentration of 14 mM Ca2+ and 10 μM test compound. Data was collected for ˜3 minutes following addition of high Ca2+Ringer, where the fluorescent intensity (for Fluo4) and the F340/F380 ratio (for Fura-2) were proportional to the [Ca2+]i Negative controls consisted of HEK293/TREx TRPC5 cells exposed to high Ca2+ solution, but no compound. Positive control conditions consisted of addition of 2-APB, a promiscuous blocker of TRPC5 and other channels, to columns 23 and 24 of the plates, to a final concentration of 200 μM. These controls defined a screening window, and “hits” were defined as those compounds inhibiting the fluorescence response by at least 40%. IC50 values were determined for compounds defined as “hits.” The Fluo4 cell-based fluorescence assay was used to determine the intracellular Ca2+ concentration in the presence of varying drug concentration. Final concentrations of compounds tested were 20 μM, 6.667 μM, 2.222 μM, 0.741 μM, 0.247 μM, 0.082 μM, and 0.027 μM. Compounds were tested in triplicate at all concentrations. Standard software was used to fit IC50 curves.
Additionally or alternatively, efficacy can be represented as % inhibition in the presence (of a given concentration of compound) versus the absence of compound or in comparison to a control compound. For example, efficacy can be represented as % inhibition of ion flux in the presence versus the absence of compound.

Bounds are passed on as bounds.

Chain of TRPC5 channel (Q9UL62 whole entry): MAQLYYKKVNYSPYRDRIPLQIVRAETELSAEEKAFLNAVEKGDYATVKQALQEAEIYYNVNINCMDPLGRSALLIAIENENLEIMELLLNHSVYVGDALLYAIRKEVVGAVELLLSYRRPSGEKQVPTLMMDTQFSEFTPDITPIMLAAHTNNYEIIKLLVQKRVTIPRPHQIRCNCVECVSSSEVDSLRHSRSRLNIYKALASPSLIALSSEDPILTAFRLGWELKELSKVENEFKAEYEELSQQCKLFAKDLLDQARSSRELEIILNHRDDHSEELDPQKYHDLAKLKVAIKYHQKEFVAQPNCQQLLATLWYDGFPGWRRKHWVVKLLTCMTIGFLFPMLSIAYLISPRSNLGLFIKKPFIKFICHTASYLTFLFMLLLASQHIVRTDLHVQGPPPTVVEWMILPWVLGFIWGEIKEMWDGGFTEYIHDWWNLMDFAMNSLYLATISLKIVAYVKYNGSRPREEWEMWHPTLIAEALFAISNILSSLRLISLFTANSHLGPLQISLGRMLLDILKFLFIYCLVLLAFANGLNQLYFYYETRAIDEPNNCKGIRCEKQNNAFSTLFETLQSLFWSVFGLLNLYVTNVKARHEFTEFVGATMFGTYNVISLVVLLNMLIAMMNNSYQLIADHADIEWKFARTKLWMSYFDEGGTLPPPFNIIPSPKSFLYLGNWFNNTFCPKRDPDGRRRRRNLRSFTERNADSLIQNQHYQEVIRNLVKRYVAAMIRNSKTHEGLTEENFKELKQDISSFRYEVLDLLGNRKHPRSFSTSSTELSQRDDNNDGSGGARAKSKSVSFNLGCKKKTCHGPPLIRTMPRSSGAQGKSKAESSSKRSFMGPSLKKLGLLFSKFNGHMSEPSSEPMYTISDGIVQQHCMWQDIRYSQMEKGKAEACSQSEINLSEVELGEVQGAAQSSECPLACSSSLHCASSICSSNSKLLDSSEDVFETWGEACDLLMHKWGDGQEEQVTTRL

One may read the IC50 as the concentration needed to halve the response being measured. With `CC(C)CCc1c(-c2cccc(OC(F)(F)F)c2)sc2c1c(=O)n(CCCO)c(=O)n2C` [Compound 3, 3-(3-hydroxypropyl)-5-isopentyl-1-methyl-6-(3-(trifluoromethoxy)phenyl)thieno[2,3-d]pyrimidine-2,4(1H,3H)-dione], the IC50 turned out to be 340 nM. For the compound `Cn1c(=O)n(CCCO)c(=O)c2c(C(O)c3ccc(Cl)cc3)c(-c3cccc(Cl)c3)sc21` (centres unmarked) [Compound 4, 6-(3-chlorophenyl)-5-((4-chlorophenyl) (hydroxy)methyl)-3-(3-hydroxypropyl)-1-methylthieno[2,3-d]pyrimidine-2,4(1H,3H)-dione], the IC50 worked out at 55 nM. The figure for `Cc1c(-c2ccc(Cl)c(Cl)c2)sc2c1c(=O)n(CCCO)c(=O)n2C` [Compound 5, 6-(3,4-dichlorophenyl)-3-(3-hydroxypropyl)-1,5-dimethylthieno[2,3-d]pyrimidine-2,4(1H,3H)-dione] is below 27 nM; for `Cc1c(-c2ccc(F)c(C(F)(F)F)c2)sc2c1c(=O)n(CCCO)c(=O)n2C` [Compound 6, 6-(4-fluoro-3-(trifluoromethyl)phenyl)-3-(3-hydroxypropyl)-1,5-dimethylthieno[2,3-d]pyrimidine-2,4(1H,3H)-dione] it is below 27 nM; for `Cc1c(-c2ccc3ccccc3c2)sc2c1c(=O)n(CCCO)c(=O)n2C` [Compound 7, 3-(3-hydroxypropyl)-1,5-dimethyl-6-(naphthalen-2-yl)thieno[2,3-d]pyrimidine-2,4(1H,3H)-dione] it is 34.9 nM. `Cc1c(-c2cncc(Cl)c2)sc2c1c(=O)n(CCCO)c(=O)n2C` [Compound 8, 6-(5-chloropyridin-3-yl)-3-(3-hydroxypropyl)-1,5-dimethylthieno[2,3-d]pyrimidine-2,4(1H,3H)-dione] had an IC50 of 1700 nM. For `Cc1c(-c2ccccc2OC(F)(F)F)sc2c1c(=O)n(CCCO)c(=O)n2C` [Compound 13, 3-(3-hydroxypropyl)-1,5-dimethyl-6-(2-(trifluoromethoxy)phenyl)thieno[2,3-d]pyrimidine-2,4(1H,3H)-dione], the IC50 is below 21 nM. Take `Cc1c(-c2cccc(OC(F)(F)F)c2)sc2c1c(=O)n(CCCO)c(=O)n2C` [Compound 14, 3-(3-hydroxypropyl)-1,5-dimethyl-6-(3-(trifluoromethoxy)phenyl)thieno[2,3-d]pyrimidine-2,4(1H,3H)-dione]: 82.2 nM corresponded to half-maximal inhibition (IC50). This lies in the double-digit nanomolar range.

Compound `Cc1c(-c2ccc(F)c(F)c2)sc2c1c(=O)n(CCCO)c(=O)n2C` [Compound 15, 6-(3,4-difluorophenyl)-3-(3-hydroxypropyl)-1,5-dimethylthieno[2,3-d]pyrimidine-2,4(1H,3H)-dione] gave an IC50 of 112 nM.

Compound `Cc1c(-c2ccccc2Cl)sc2c1c(=O)n(CCCO)c(=O)n2C` [Compound 16, 6-(2-chlorophenyl)-3-(3-hydroxypropyl)-1,5-dimethylthieno[2,3-d]pyrimidine-2,4(1H,3H)-dione] had an IC50 of 27 nM.

On to `Cc1c(-c2cccc(F)c2)sc2c1c(=O)n(CCCO)c(=O)n2C` [Compound 18, 6-(3-fluorophenyl)-3-(3-hydroxypropyl)-1,5-dimethylthieno[2,3-d]pyrimidine-2,4(1H,3H)-dione], for which the IC50 worked out at 27 nM. `Cc1c(-c2cccc(Cl)c2)sc2c1c(=O)n(CCCO)c(=O)n2C` [Compound 19, 6-(3-chlorophenyl)-3-(3-hydroxypropyl)-1,5-dimethylthieno[2,3-d]pyrimidine-2,4(1H,3H)-dione] showed an IC50 of 226 nM. Then `CC(C)CC(O)c1c(-c2cccc(OC(F)(F)F)c2)sc2c1c(=O)n(CCCO)c(=O)n2C` (centres unmarked) [Compound 22, 5-(1-hydroxy-3-methylbutyl)-3-(3-hydroxypropyl)-1-methyl-6-(3-(trifluoromethoxy)phenyl) thieno[2,3-d]pyrimidine-2,4(1H,3H)-dione], with 369 nM. Compound `Cn1c(=O)n(CCCO)c(=O)c2c(Cc3ccc(Cl)cc3)c(-c3cccc(Cl)c3)sc21` [Compound 23, 5-(4-chlorobenzyl)-6-(3-chlorophenyl)-3-(3-hydroxypropyl)-1-methylthieno[2,3-d]pyrimidine-2,4(1H,3H)-dione] gave an IC50 of 27 nM.

(Values after patent US9447114B2, “Thieno- and furo[2,3-d]pyrimidine-2,4[1H,3H]-dione derivatives” (Hydra Biosciences, Inc., priority 2014, dated 2016).)
